“And” between values parts separate entries of the source, which are not always exact repeats. Equal entries are not always repeated.
Test system: NOD mice with recent-onset diabetes
Assay: GLP-1 and gastrin therapy of recent-onset diabetes in NOD mice, fasting blood glucose
Assay type: in vivo, mouse
Details: NOD female mice, GLP-1 100 μg/kg/day, gastrin 3 μg/kg/day, i.p. twice a day
Text: In this example, the effect of treatment by a combination of GLP-1 and gastrin was examined in NOD mice with recent onset diabetes, to determine whether administration of both GLP-1 and gastrin would prevent severe hyperglycemia, ketoacidosis and death as well as increase pancreatic insulin content in NOD mice with recent-onset diabetes. The I.N.T.™ composition used was gastrin as synthetic human gastrin I having 17 amino acid residues with a Leu residue at amino acid position 15. The GLP-1 used was GLP-1 which is the biologically active fragment of human/mouse GLP-1 (having residues at positions 7-36 compared to the precursor from which the fragment is processed; obtained from Bachem H6795).
Non-obese diabetic (NOD) female mice, ages 12-14 weeks, were monitored for development of onset of diabetes (fasting blood glucose >8.0 to 15 mmol/l), and within 48 hours after onset of symptoms, two groups of mice were each treated as follows: one group was treated with vehicle only; and the other group was administered 100 μg/kg/day of GLP-1, each treatment administered via the intraperitoneal route twice daily.
Therapy was administered for 14 days. Animals were monitored weekly for fasting blood glucose (FBG) levels. FBG levels were measured at about 12 hours after food had been withdrawn, and 24 hours after the last peptide or vehicle injection. Upon cessation of therapy, all mice were monitored for FBG levels for the next 4 weeks (weeks 2-6) so as to determine whether prevention of hyperglycemia persisted after termination of therapeutic treatment.
The protocol includes sampling of these mice for data again at 6 weeks, and blood collected for assay of FBG and plasma C-peptide, and the mice are sacrificed for pancreatic insulin determinations and scoring of islet inflammation (insulitis). From the outset of treatment, mice received neither insulin-replacement treatment nor immunosuppression. The following parameters are assessed: survival rates, pancreatic insulin levels, presence of islet inflammation and fasting blood glucose levels.

## GLP-1: biologically active fragment of human/mouse GLP-1 (having residues at positions 7-36); obtained from Bachem H6795
Day 0 (start of treatment)
  FBG (mM) at day: 0: 12.3 ± 0.9 mM
Day 7 of treatment
  FBG (mM) at day: 7: 14.1 ± 1.8 mM
Day 14 (end of treatment)
  FBG (mM) at day: 14: 15.3 ± 2.6 mM
Day 18 (treatment stopped at 14 days)
  FBG (mM) at day: 18: 15.8 mM and 15.8 ± 4.2 mM
